According to patent US20170248616A1, “IN VITRO COMPOSITIONS COMPRISING HUMAN SAMPLE AND AMYLOID TARGETING AGENT” (Amydis Diagnostics, Inc., priority 2014, published 2017):

Target: T1, amyloid deposits in hippocampal brain sections (Homo sapiens, UniProt P05067)
T1 construct: from tissue; host or cells: hippocampal brain sections of a mouse model for Alzheimer's disease
Test: Fluorescence labeling of amyloid deposits in hippocampal brain sections from a mouse model for Alzheimer's disease
Conditions: excitation wavelength 488 nm; fluorescence micrographs
Text: An excitation wavelength of 488 nm was used to excite the fluorophores. FIG. 13. […] An excitation wavelength of 488 nm was used to excite the fluorophores.

T1 sequence (P05067 672-713 limits assumed): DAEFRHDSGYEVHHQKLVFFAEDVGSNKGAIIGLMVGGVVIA

Compound | fluorescence labeling of amyloid deposits
COCCOCCOCCNC(=O)/C(C#N)=C/c1ccc2cc(N3CCCCC3)ccc2c1 [Compound 1, 2-cyano-N-(2-(2-(2-methoxyethoxy)ethoxy)ethyl)-3-(6-(piperidin-1-yl)naphthalen-2-yl)acrylamide] | fluorescence labeling of amyloid deposits
COCCOCCOCCNS(=O)(=O)/C(C#N)=C/c1ccc2cc(N3CCCCC3)ccc2c1 [Compound 2, 1-cyano-N-(2-(2-(2-methoxyethoxy)ethoxy)ethyl)-2-(6-(piperidin-1-yl)naphthalen-2-yl)ethenesulfonamide] | fluorescence labeling of amyloid deposits
